“And” between values parts separate entries of the source, which are not always exact repeats. Equal entries are not always repeated. Where two headings read alike, the source gives them in different places.

Data set [1] is described as follows: Genotype-stratified analysis: PPI association with endpoints by CYP2C19 predicted metaboliser status. Type of data set: in vivo, human. As to conditions: adjusted. The method, then: (§1) Exploratory genotype‐stratified analyses were carried out to further assess key identified drug–drug interactions. Specifically, the adjusted association of PPIs with endpoints was determined following cohort stratification by CYP2C19 predicted metaboliser status, because PPIs are metabolised by CYP2C19.22, 23 CYP2C19 was stratified by *2 (rs4244285; directly genotyped) and *17 (rs12248560; imputed) diplotypes into: extensive (EM, *1/*1), intermediate (IM, *1/*2 or *2/*17), poor (PM, *2/*2), rapid (RM, *1/*17) and ultra‐rapid metabolisers (UM, *17/*17). Due to the small number of PM (n = 10) and UM (n = 24) patients, PMs were combined with IMs, and UMs with RMs, for analysis. […] Secondly, the impact of https://www.guidetopharmacology.org/GRAC/ObjectDisplayForward?objectId=792 rs2231142 (Q141K; imputed) on the adjusted associations of loop diuretics with the endpoints was considered.
(§2) The sensitivity and genotype‐stratified analyses were only conducted on those endpoints where the perpetrator comedication of interest had been included in the endpoint's main analysis model, and P < .05 was taken to indicate significance. All statistical testing was carried out in the R computing environment,26 except for the secondary stepwise analysis that was undertaken in IBM SPSS version 22.0 (IBM Corp, Armonk, NY, USA); boxplots were produced in GraphPad Prism (version 5.00 for Windows: GraphPad Software Inc., San Diego, USA).

Data set [2] is described as follows: Genotype-stratified analysis: loop diuretic association with endpoints by ABCG2 rs2231142 (Q141K). In kind it is in vivo, human. As to conditions: adjusted. As to the method: as §1, §2
Data set [3] has as its system 3‐hydroxy‐3‐methyl‐glutaryl‐coenzyme A reductase (HMGCR). As to conditions: background statement in introduction; cited from earlier work.
Data set [4] is described as follows: Plasma concentrations of ATV and metabolites by HPLC-MS/MS in NSTE-ACS patients at V2 (1 month). Type of data set: in vivo, human. As to conditions: for concentration at […] / concentration at 1 month: human, plasma, oral; for concentration at […]: plasma at V2, median […] since last ATV (estimated), read-out: Conc (ng/mL), median (IQR); for concentration at 1 month: median ATV concentration, unadjusted. An excerpt:
This investigation harnessed the Pharmacogenetics of Acute Coronary Syndrome (PhACS) study, described previously.13 Briefly, PhACS was a UK multicentre prospective observational study that recruited 1470 eligible patients hospitalised with an NSTE‐ACS between 2008–2012 and followed them up at 1 (V2) and 12 (V3) months. Demographic, comorbidity and prescription information was collected at baseline; drug use, drug adherence, and new clinical events were captured during follow up. PhACS participants were genotyped using the Illumina HumanOmniExpressExome‐8 v1.0 BeadChip at Edinburgh Genomics (Roslin Institute, Scotland).
Briefly, 50‐μL plasma samples were first mixed with 20 μL of a composite internal standard solution containing a deuterated internal standard for each analyte, and then diluted further by addition of 180 μL 100% acetonitrile containing 0.3% acetic acid. Following centrifugation, the supernatant was diluted 1:2 in water and a 5‐μL aliquot injected for analysis. Analytes were separated using a 2.7‐μm Halo C18 column (50 × 2.1 mm ID, 90 Å, Hichrom Limited, Reading, UK, part number: 92812–402) with gradient elution, housed within a Shimadzu Nexera X2 modular system (Kyoto, Japan). Analytes were detected in low mass positive ionisation mode using multiple reaction monitoring (Sciex triple quadrupole 6500 QTRAP mass spectrometer with a Turbo electrospray source, AB Sciex, Warrington, UK). […] Calibration and quality control (QC) samples were prepared in pooled healthy human volunteer K3 EDTA plasma (Sera Laboratories International, West Sussex, UK).

Data set [5] is described as follows: Main analysis: all subsets multivariable linear regression with BIC model averaging of clinical factors/comedications on ATV analyte levels, ratios and sum total. In kind it is in vivo, human. Conditions: log10 transformed plasma concentration, model averaged coefficient. An excerpt: All variables were considered in model selection (see below) except hypertension, hyperlipidaemia, and prior CVD.
Prior to modelling, all endpoints were log10 transformed to normalise the distribution of (observed) residuals and optimise homoscedasticity.
Third, the derived models were ranked according to the Bayesian information criterion (BIC), which is more conservative than the corrected Akaike information criterion because BIC carries a larger penalty for increasing model complexity.19 Fourth, all models with a BIC within 2 of the model with the lowest BIC (BIC Δ < 2) underwent model averaging to produce model averaged (unstandardised) coefficients and standard errors for all the covariates included in this set of models, to enable multimodel inferences. The model selection constraint of Δ < 2 was chosen because the empirical evidence supporting each of these models is considered essentially equivalent.19 Conditional averaging was used, and so for a given covariate, its coefficient and standard error were averaged from only those models with BIC Δ < 2 that contained the covariate.20 This approach was taken because of the interest in assessing the relationship between individual covariates and the endpoints, with overall model predictive capability of secondary importance.21 The relative importance of each of the selected covariates to the endpoint was assessed by summing the BIC‐derived model weight for all models that underwent model averaging and contained the covariate. The P‐value for each covariate in the final model is provided for reference only. The utility of the final produced model for describing the observed variation in the endpoint was assessed using the unadjusted R^2 value. This process was undertaken for all endpoints. The above described covariate selection and model averaging was carried out using the R statistical package, MuMIn. 20

For data set [6] the following is noted: cited from earlier work.
The subject of data set [7] is breast cancer resistance protein (BCRP, encoded by ABCG2). As to conditions: cited from earlier work.
Setting [8] is: CYP2C19 EM (n = 233), on PPI n = 88.
Where [9] appears, read: CYP2C19 PM/IM (n = 152), on PPI n = 58.
Where [10] appears, read: CYP2C19 RM/UM (n = 186), on PPI n = 83.
[11] abbreviates: ABCG2 rs2231142 WT (n = 435), on LD n = 74.
[12] abbreviates: ABCG2 rs2231142 variant carrier (n = 136), on LD n = 22.

For the molecule `CC(C)c1c(C(=O)Nc2ccccc2O)c(-c2ccccc2)c(-c2ccc(F)cc2)n1CCC1CC(O)CC(=O)O1` (centres unmarked) [2‐OH ATV L], the “B (SE), Proton pump inhibitor on analyte level” value (“B (SE), Proton pump inhibitor” for short) in data set [1] (setting [8]) was 0.065 (0.039). Moreover, the “B (SE), Proton pump inhibitor” value in data set [1] (setting [9]) was 0.018 (0.057). Also, in data set [1] (setting [10]), the “B (SE), Proton pump inhibitor” value is given as 0.199 (0.042). Besides, the “B (SE), Loop diuretic on analyte level” value in data set [2] (setting [11]) is 0.102 (0.040). Also, the “B (SE), Loop diuretic on analyte level” value in data set [2] (setting [12]) is 0.044 (0.075). The “activity against HMGCR” value in data set [3] was “inactive”. The concentration at […] in data set [4] (40 mg daily, 40 mg ATV daily) was 4.24 ng/mL. Also, the concentration at […] in data set [4] (80 mg daily, 80 mg ATV daily) was 7 ng/mL. Further, in data set [5], the “B (SE), ATV dose on analyte level” value is 0.215 (0.051); the “B (SE), Age on analyte level” value is reported as 0.006 (0.001); the “B (SE), Body mass index on analyte level” value is given as −0.006 (0.002); the “B (SE), Hepatic disease on analyte level” value was −0.289 (0.134). Further, in data set [5], the “B (SE), Loop diuretic on analyte level” value is given as 0.084 (0.035); the “B (SE), Proton pump inhibitor” value is recorded as 0.106 (0.026); the “B (SE), Sample storage duration on analyte level” value (from here on “B (SE), Sample storage duration”) is on record as 0.0001 (0.00003); the “B (SE), Time since last ATV on analyte level” value (from here on “B (SE), Time since last ATV”) is given as −0.0006 (0.0001).
Turning to `CC(C)c1c(C(=O)Nc2ccccc2O)c(-c2ccccc2)c(-c2ccc(F)cc2)n1CC[C@@H](O)C[C@@H](O)CC(=O)O` [2‐OH ATV], in data set [1] (setting [8]), the “B (SE), Proton pump inhibitor” value is reported as 0.045 (0.038). In addition, the “B (SE), Proton pump inhibitor” value in data set [1] (setting [9]) is 0.032 (0.050). Moreover, in data set [2] (setting [11]), the “B (SE), Loop diuretic on analyte level” value was 0.072 (0.039). Moreover, the “B (SE), Loop diuretic on analyte level” value in data set [2] (setting [12]) is −0.051 (0.077). In data set [4] (40 mg daily, 40 mg ATV daily), the concentration at […] is 5.35 ng/mL. Besides, the concentration at […] in data set [4] (80 mg daily, 80 mg ATV daily) is 6.93 ng/mL. For the same molecule, the “B (SE), Smoking on analyte level” value in data set [5] (current vs previous/never) was −0.076 (0.028). In addition, in data set [5], the “B (SE), ATV dose on analyte level” value is listed as 0.212 (0.048); the “B (SE), Age on analyte level” value is on record as 0.007 (0.001); the “B (SE), Body mass index on analyte level” value is reported as −0.006 (0.002); the “B (SE), Chronic kidney disease on analyte level” value is listed as 0.111 (0.051). In addition, in data set [5], the “B (SE), Diabetes mellitus on analyte level” value is listed as 0.079 (0.031); the “B (SE), Loop diuretic on analyte level” value is recorded as 0.074 (0.033); the “B (SE), Proton pump inhibitor” value is reported as 0.062 (0.024); the “B (SE), Sample storage duration” value was −0.0001 (0.00003). Besides, the “B (SE), Time since last ATV” value in data set [5] is −0.0007 (0.0001).
`CC(C)c1c(C(=O)Nc2ccc(O)cc2)c(-c2ccccc2)c(-c2ccc(F)cc2)n1CCC1CC(O)CC(=O)O1` (centres unmarked) [4‐OH ATV L]: the “activity against HMGCR” value in data set [3] is “inactive”.
With `CC(C)c1c(C(=O)Nc2ccc(O)cc2)c(-c2ccccc2)c(-c2ccc(F)cc2)n1CC[C@@H](O)C[C@@H](O)CC(=O)O` [4‐OH ATV], the “activity against HMGCR” value in data set [3] is recorded as “inhibit”.
As to `CC(C)c1c(C(=O)Nc2ccccc2)c(-c2ccccc2)c(-c2ccc(F)cc2)n1CCC1CC(O)CC(=O)O1` (centres unmarked) [ATV L], the “B (SE), Proton pump inhibitor” value in data set [1] (setting [8]) is recorded as 0.076 (0.050). Besides, the “B (SE), Proton pump inhibitor” value in data set [1] (setting [9]) was 0.084 (0.070). Further, the “B (SE), Proton pump inhibitor” value in data set [1] (setting [10]) was 0.232 (0.053). The “B (SE), Loop diuretic on analyte level” value in data set [2] (setting [11]) was 0.149 (0.048). Also, in data set [2] (setting [12]), the “B (SE), Loop diuretic on analyte level” value is 0.077 (0.089). In data set [4] (40 mg daily, 40 mg ATV daily), the concentration at […] was 2.51 ng/mL. In addition, the concentration at […] in data set [4] (80 mg daily, 80 mg ATV daily) was 3.97 ng/mL. Moreover, in data set [5], the “B (SE), ATV dose on analyte level” value is recorded as 0.222 (0.064); the “B (SE), Amiodarone on analyte level” value is on record as 0.320 (0.142); the “B (SE), Body mass index on analyte level” value is −0.006 (0.003); the “B (SE), Loop diuretic on analyte level” value is recorded as 0.121 (0.043). Moreover, in data set [5], the “B (SE), Proton pump inhibitor” value is reported as 0.139 (0.033); the “B (SE), Sample storage duration” value was 0.0002 (0.00004); the “B (SE), Sex (F vs M) on analyte level” value was −0.097 (0.038); the “B (SE), Time since last ATV” value is on record as −0.0007 (0.0001).
Regarding `CC(C)c1c(C(=O)Nc2ccccc2)c(-c2ccccc2)c(-c2ccc(F)cc2)n1CC[C@@H](O)C[C@@H](O)CC(=O)O` [ATV, atorvastatin, reference compound], the “B (SE), Proton pump inhibitor” value is listed as 0.052 (0.045) in data set [1] (setting [8]), 0.046 (0.061) in data set [1] (setting [9]), 0.162 (0.050) in data set [1] (setting [10]) and 0.093 (0.030) in data set [5]. In addition, the “B (SE), Loop diuretic on analyte level” value in data set [2] (setting [11]) is 0.121 (0.044); in data set [2] (setting [12]) it was 0.041 (0.086); in data set [5], 0.099 (0.040). Further, the “activity against HMGCR” value in data set [3] is “inhibit”. In addition, the “fraction of an ATV dose excreted through the kidneys” value in data set [6] was less than 2%. For the same molecule, the concentration at […] is 3.96 ng/mL in data set [4] (40 mg daily, 40 mg ATV daily) and 5.22 ng/mL in data set [4] (80 mg daily, 80 mg ATV daily). Also, the concentration at 1 month in data set [4] (patients not on a PPI) turned out to be 4.9 ng/mL; in data set [4] (patients not on a loop diuretic), 4.9 ng/mL; in data set [4] (patients on a PPI) it was 5.6 ng/mL; in data set [4] (patients on a loop diuretic) it was 6.8 ng/mL. The “increase in median ATV concentration” value is 14% and ~ 14% in data set [4] (with PPIs vs without); 38% and ~ 38% in data set [4] (with loop diuretics vs without). Besides, the “B (SE), ATV dose on analyte level” value in data set [5] was 0.153 (0.058). Moreover, the “B (SE), Age on analyte level” value in data set [5] is 0.004 (0.001). Further, the “B (SE), Amiodarone on analyte level” value in data set [5] is 0.282 (0.129). Also, the “B (SE), Time since last ATV” value in data set [5] is reported as −0.001 (0.0001).
Regarding `CCCCNc1cc(C(=O)O)cc(S(N)(=O)=O)c1Oc1ccccc1` [bumetanide], in data set [7], the “inhibition of BCRP in vitro” value is listed as “inhibit”.
